Assay [1] deals with T1, hα2A receptor (Homo sapiens, UniProt P08913).
T1 construct: expressed in transfected cells; host or cells: CHO cells, stably transfected; membrane preparation
T1 sequence (P08913 1-465): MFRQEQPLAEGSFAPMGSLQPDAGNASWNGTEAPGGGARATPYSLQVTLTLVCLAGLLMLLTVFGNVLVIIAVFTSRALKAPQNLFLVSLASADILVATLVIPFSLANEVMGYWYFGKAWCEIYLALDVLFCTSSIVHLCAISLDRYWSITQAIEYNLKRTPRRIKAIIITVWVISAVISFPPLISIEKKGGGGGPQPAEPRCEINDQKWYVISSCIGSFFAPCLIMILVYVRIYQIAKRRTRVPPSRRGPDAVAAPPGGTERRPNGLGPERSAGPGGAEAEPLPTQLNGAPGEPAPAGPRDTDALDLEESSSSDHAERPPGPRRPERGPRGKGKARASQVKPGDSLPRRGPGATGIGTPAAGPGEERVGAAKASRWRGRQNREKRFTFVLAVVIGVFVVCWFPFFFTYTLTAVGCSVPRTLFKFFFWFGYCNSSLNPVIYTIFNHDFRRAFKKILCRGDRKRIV
Nature of the assay: Radioligand binding experiment for α2A-adrenoceptor ([3H]raulwolscine, CHO cell membranes). Conditions: [3H]raulwolscine binding; for IC50: read-out: h-α2A pIC50 (converted).

For assay [2], the target named is T2, hα2C receptor (Homo sapiens, UniProt P18825).
T2 construct: expressed in transfected cells; host or cells: CHO cells, stably transfected; membrane preparation
T2 sequence (P18825 1-462): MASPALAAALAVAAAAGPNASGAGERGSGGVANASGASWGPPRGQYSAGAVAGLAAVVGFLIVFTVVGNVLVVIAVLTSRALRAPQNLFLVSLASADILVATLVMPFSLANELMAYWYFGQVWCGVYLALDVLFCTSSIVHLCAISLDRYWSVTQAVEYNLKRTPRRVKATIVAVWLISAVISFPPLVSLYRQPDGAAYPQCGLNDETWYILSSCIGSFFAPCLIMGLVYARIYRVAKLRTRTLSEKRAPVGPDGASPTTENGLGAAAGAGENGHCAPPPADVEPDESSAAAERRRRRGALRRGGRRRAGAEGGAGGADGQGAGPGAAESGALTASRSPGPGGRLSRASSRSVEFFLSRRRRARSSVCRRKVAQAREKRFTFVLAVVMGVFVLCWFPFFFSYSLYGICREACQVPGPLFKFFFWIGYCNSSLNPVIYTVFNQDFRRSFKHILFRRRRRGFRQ
Nature of the assay: Radioligand binding experiment for α2C-adrenoceptor ([3H]raulwolscine, CHO cell membranes). Conditions: [3H]raulwolscine binding; for IC50: read-out: h-α2C pIC50 (converted).

Assay [3] concerns the target T3, 5HT-Transporter (Homo sapiens, UniProt P31645).
T3 construct: Human platelet membranes (Oceanix Biosciences Corporation, Hanover, Md., USA) were thawed; tissue Oceanix Biosciences Corporation, Hanover, Md., USA; host or cells: human platelet membranes
Nature of the assay: Binding experiment for the 5HT-transporter ([3H]paroxetine, human platelet membranes). Conditions: [3H]paroxetine 0.5 nM; for IC50: read-out: h-5HTT pIC50 (converted). The method in brief:
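Filter-bound radioactivity from human platelet membranes incubated with [3H]paroxetine and test compound (buffer Tris-HCl 50 mM, 120 mM NaCl, 5 mM KCl) was counted.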

T3 sequence (P31645 whole entry): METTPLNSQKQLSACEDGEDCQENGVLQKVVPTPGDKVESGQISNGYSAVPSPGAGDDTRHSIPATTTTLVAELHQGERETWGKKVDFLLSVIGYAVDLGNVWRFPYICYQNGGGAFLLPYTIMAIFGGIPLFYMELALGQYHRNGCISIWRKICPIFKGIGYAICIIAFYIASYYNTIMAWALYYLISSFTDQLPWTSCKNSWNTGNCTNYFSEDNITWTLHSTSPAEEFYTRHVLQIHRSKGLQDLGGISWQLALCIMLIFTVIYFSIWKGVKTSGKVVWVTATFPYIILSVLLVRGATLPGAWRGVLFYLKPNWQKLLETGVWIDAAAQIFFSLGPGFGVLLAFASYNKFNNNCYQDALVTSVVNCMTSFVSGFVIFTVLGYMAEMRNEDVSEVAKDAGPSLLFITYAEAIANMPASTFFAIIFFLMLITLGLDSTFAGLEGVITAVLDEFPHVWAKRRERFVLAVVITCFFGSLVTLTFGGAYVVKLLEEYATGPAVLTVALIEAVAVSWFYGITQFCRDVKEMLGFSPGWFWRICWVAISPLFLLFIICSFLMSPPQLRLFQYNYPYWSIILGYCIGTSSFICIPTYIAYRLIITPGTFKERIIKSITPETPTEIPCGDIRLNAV

In the case of `C/C(=C\c1ccccc1)CN1CCC(Nc2nccn(Cc3cnc(C)s3)c2=O)CC1` [6-8], the IC50 in assay [1] is 158 nM; in assay [2], 25.1 nM; in assay [3], 3980 nM.

For the molecule `C/C(=C\c1ccccc1)CN1CCC(Nc2nccn(CC#CCN3C(=O)c4ccccc4C3=O)c2=O)CC1` [2-53], the IC50 is 200 nM in assay [1], 3.16 nM in assay [2] and 63.1 nM in assay [3].

With `COC(=O)CN(C)C(=O)Cn1ccnc(NC2CCN(C/C(C)=C/c3ccccc3)CC2)c1=O` [1-97], the IC50 in assay [1] was 126 nM; in assay [2], 10 nM; in assay [3], 2510 nM.

With `C/C(=C\c1ccccc1)CN1CCC(Nc2nccn(Cc3ccc(C(F)(F)F)cc3)c2=O)CC1` [5-23], the IC50 was 200 nM in assay [1], 79.4 nM in assay [2] and 794 nM in assay [3].

`COC(=O)Cn1ccnc(NC2CCN(C/C(C)=C/c3ccccc3)CC2)c1=O` [3-7]: the values for the IC50 in assay [1], in assay [2] and in assay [3] were 100 nM, 10 nM and 7940 nM, respectively.

For `C/C(=C\c1ccccc1)CN1CCC(Nc2nccn(Cc3ccc(CNC(=O)NCc4ccccc4)cc3)c2=O)CC1` [1-124], the values for the IC50 in assay [1], in assay [2] and in assay [3] were 251 nM, 63.1 nM and 501 nM, respectively.

On to `CSCCn1ccnc(N2CCN(C/C(C)=C/c3ccccc3)CC2)c1=O` [11-1], for which the values for the IC50 in assay [1], in assay [2] and in assay [3] were 316 nM, 79.4 nM and 6310 nM, respectively.

For `C/C(=C\c1ccccc1)CN1CCC(Nc2nccn(CC(=O)N3CCN(c4ccccc4)CC3)c2=O)CC1` [2-26], the IC50 in assay [1] is 126 nM; in assay [2], 7.94 nM; in assay [3], 794 nM.

Regarding `C/C(=C\c1ccccc1)CN1CCC(Nc2nccn(-c3ccc(CN4CCCCC4)cc3)c2=O)CC1` [2-10], the results for the IC50 in assay [1], in assay [2] and in assay [3] were 31.6 nM, 1.58 nM and 251 nM, respectively.

Take `CCCNC(=O)NCc1ccc(Cn2ccnc(NC3CCN(C/C(C)=C/c4ccccc4)CC3)c2=O)cc1` [1-115]: the IC50 in assay [1] is 251 nM; in assay [2], 79.4 nM; in assay [3], 794 nM.

With `C/C(=C\c1ccccc1)CN1CCC(Nc2nccn(CCCNC(=O)Nc3ccccc3)c2=O)CC1` [1-119], the IC50 in assay [1] was 158 nM; in assay [2] it was 5.01 nM; in assay [3], 158 nM.

For `C/C(=C\c1ccccc1)CN1CCC(Nc2nccn(-c3ccc(C(=O)N(CCN(C)C)Cc4ccccc4)cc3)c2=O)CC1` [1-112], the IC50 in assay [1] is 39.8 nM; in assay [2], 3.16 nM; in assay [3] it was 200 nM.

With `C/C(=C\c1ccccc1)CN1CCC(Nc2nccn(CCCN(c3ccccc3)S(=O)(=O)c3ccccc3)c2=O)CC1` [1-168], the IC50 in assay [1] was 158 nM; in assay [2], 10 nM; in assay [3], 200 nM.

As for `C/C(=C\c1ccccc1)CN1CCC(Nc2nccn(-c3ccc(NC(=O)Nc4ccc(F)cc4)cc3)c2=O)CC1` [1-120], the figures for the IC50 in assay [1], in assay [2] and in assay [3] were 200 nM, 25.1 nM and 126 nM, respectively.

For `C/C(=C\c1ccccc1)CN1CCC(Nc2nccn(-c3cccc(NCc4ccccc4)c3)c2=O)CC1` [1-49], the values for the IC50 in assay [1], in assay [2] and in assay [3] were 25.1 nM, 3.98 nM and 251 nM, respectively.

In the case of `CCCC(=O)N(CCCn1ccnc(NC2CCN(C/C(C)=C/c3ccccc3)CC2)c1=O)Cc1ccccc1` [1-85], the IC50 in assay [1] is 158 nM; in assay [2], 10 nM; in assay [3] it was 1260 nM.

As to `C/C(=C\c1ccccc1)CN1CCC(Nc2nccn(-c3cccc(N4CCCCC4)c3)c2=O)CC1` [2-6], the IC50 in assay [1] was 3.98 nM; in assay [2], 2.51 nM; in assay [3], 316 nM.

On to `CCCN(C)C(=O)Cn1ccnc(NC2CCN(C/C(C)=C/c3ccccc3)CC2)c1=O` [1-19], for which the results for the IC50 in assay [1], in assay [2] and in assay [3] were 126 nM, 10 nM and 1580 nM, respectively.

As to `COC(=O)C1CCN(C(=O)Cn2ccnc(NC3CCN(C/C(C)=C/c4ccccc4)CC3)c2=O)CC1` [2-15], the IC50 in assay [1] was 126 nM; in assay [2], 3.98 nM; in assay [3], 3980 nM.

With `C/C(=C\c1ccccc1)CN1CCC(Nc2nccn(-c3cccc(NCCc4ccccc4)c3)c2=O)CC1` [1-58], the IC50 in assay [1] is 25.1 nM; in assay [2], 6.31 nM; in assay [3] it was 398 nM.

As for `C/C(=C\c1ccccc1)CN1CCC(Nc2nccn(Cc3ccccc3)c2=O)CC1` [5-8], the IC50 is 200 nM in assay [1], 50.1 nM in assay [2] and 1580 nM in assay [3].

As to `O=c1c(NC2CCN(C/C=C/c3ccccc3)CC2)nccn1Cc1ccccc1Br` [16-15], the IC50 in assay [1] was 631 nM; in assay [2], 158 nM; in assay [3], 794 nM.

For the molecule `COC(=O)C1CCN(C(=O)c2ccc(-n3ccnc(NC4CCN(C/C(C)=C/c5ccccc5)CC4)c3=O)cc2)CC1` [2-16], the IC50 in assay [1] was 50.1 nM; in assay [2], 5.01 nM; in assay [3], 501 nM.

`C/C(=C\c1ccccc1)CN1CCC(Nc2nccn(CC(=O)NCCN(C)C)c2=O)CC1` [1-102]: the figures for the IC50 in assay [1], in assay [2] and in assay [3] were 31.6 nM, 2 nM and 3160 nM, respectively.

As for `COCCn1ccnc(NC2CCN(C/C=C/c3ccccc3)CC2)c1=O` [16-9], the IC50 was 3160 nM in assay [1], 631 nM in assay [2] and over 10000 nM in assay [3].

Regarding `C/C(=C\c1ccccc1)CN1CCC(Nc2nccn(CC(=O)N(C)CCO)c2=O)CC1` [1-21], the IC50 in assay [1] is 316 nM; in assay [2], 20 nM; in assay [3], 2510 nM.

For the molecule `C/C(=C\c1ccccc1)CN1CCC(Nc2nccn(-c3cccc(NS(=O)(=O)Cc4ccccc4)c3)c2=O)CC1` [1-166], the results for the IC50 in assay [1], in assay [2] and in assay [3] were 63.1 nM, 12.6 nM and 316 nM, respectively.

On to `CCCCCn1ccnc(NC2CCN(C/C(C)=C/c3ccccc3)CC2)c1=O` [7-5], for which the IC50 was 100 nM in assay [1], 31.6 nM in assay [2] and 251 nM in assay [3].

On to `C/C(=C\c1ccccc1)CN1CCN(c2ncc[nH]c2=O)CC1` [14-1], for which the IC50 in assay [1] is 158 nM; in assay [2] it was 39.8 nM; in assay [3], 3980 nM.

Turning to `C/C(=C\c1ccccc1)CN1CCC(Nc2nccn(-c3ccc(C(=O)N4CCN(CCc5ccccc5)CC4)cc3)c2=O)CC1` [2-33], the IC50 in assay [1] was 126 nM; in assay [2], 15.8 nM; in assay [3] it was 200 nM.

`C/C(=C\c1ccccc1)CN1CCN(c2nccn(Cc3ccccc3)c2=O)CC1` [12-1]: the IC50 in assay [1] is 63.1 nM; in assay [2] it was 63.1 nM; in assay [3], 3160 nM.

As to `C/C(=C\c1ccccc1)CN1CCC(Nc2nccn(CC(=O)N(C)Cc3ccccc3)c2=O)CC1` [1-52], the figures for the IC50 in assay [1], in assay [2] and in assay [3] were 63.1 nM, 2.51 nM and 631 nM, respectively.

Take `C/C(=C\c1ccccc1)CN1CCC(Nc2nccn(CC(=O)NCC(c3ccccc3)c3ccccc3)c2=O)CC1` [1-68]: the IC50 in assay [1] is 158 nM; in assay [2], 12.6 nM; in assay [3], 794 nM.

As for `C/C(=C\c1ccccc1)CN1CCC(Nc2nccn(-c3cccc(N)c3)c2=O)CC1` [1-4], the IC50 was 31.6 nM in assay [1], 5.01 nM in assay [2] and 3160 nM in assay [3].

Take `C/C(=C\c1ccccc1)CN1CCC(Nc2nccn(Cc3ccc(CNC(=O)c4ccc(C#N)cc4)cc3)c2=O)CC1` [1-75]: the IC50 in assay [1] was 126 nM; in assay [2] it was 50.1 nM; in assay [3], 200 nM.

For `C/C(=C\c1ccccc1)CN1CCC(Nc2nccn(-c3ccc(CNC(=O)OC(C)(C)C)cc3)c2=O)CC1` [1-91], the “h-α2A pIC50” value in assay [1] is on record as 6.5. Also, the “h-α2C pIC50” value in assay [2] was determined as 7.7. The “h-5HTT pIC50” value in assay [3] was 6.1.

For `COc1ccc(NC(=O)Cn2ccnc(NC3CCN(C/C(C)=C/c4ccccc4)CC3)c2=O)cc1` [1-63], the IC50 was 100 nM in assay [1], 12.6 nM in assay [2] and 631 nM in assay [3].

Regarding `C/C(=C\c1ccccc1)CN1CCC(Nc2nccn(CC(=O)NCCCc3ccccc3)c2=O)CC1` [1-60], the values for the IC50 in assay [1], in assay [2] and in assay [3] were 79.4 nM, 10 nM and 794 nM, respectively.

Values taken from patent US20090111801A1, “SUBSTITUTED PYRAZINONE DERIVATIVES FOR USE AS A MEDICINE” (Janssen Pharmaceutica N.V., priority 2006, published 2009).
